The record followed here is patent publication US12678388B2, “Dermatological compositions and use thereof” (BONE SCI. BIO LTD., priority 2021, dated 2026).

Peptide text beside a SMILES is read from it.

Holding throughout (type): in vivo
The test system of data set [1] is albino rabbits. The data set is described as follows: Implantation test (local implantation effects, femur). To be noted: 3% w/v PFD5 formulation. As for the experimental part:
In order to test the local implantation effects of a 3% w/v PFD5 formulation according to certain embodiments of the present invention, an implantation test was performed.
10 albino rabbits were used for the test: each animal was implanted with the test sample at the right femur and with negative control (USP reference standard control plastic, HDPE) at the left femur, for a total of two sites/animal.
One explant time was scheduled after 4 weeks. Animals were daily submitted to general objective exam with the purpose to detect possible local effects due to the sample. The behavior of animals was observed and all abnormalities were recorded. During the explant, all implanted sites with the test sample and with the negative control were harvested and observed macroscopically to determine any injuries. Implantation sites of each animal and local lymph nodes were preserved in formalin 10% buffer solution and used for histological evaluation. […] Nothing abnormal was detected macroscopically in both treated and control sites of all animals.

In another data set the test system is rats. As to the kind of experiment: Tissue augmentation in subcutaneous rat model. To be noted: PFD5 3.5% w/v. The procedure: The effect of PFD5 3.5% w/v hydrogel on tissue augmentation was tested in a subcutaneous rat model and compared to the effect obtained in rats treated with a commercially available hyaluronic acid dermal filler. Individual rats were treated with 0.2 ml of PFD5 hydrogel or HA injection administered subcutaneously above the parietal bone. Animals were held for three days, one month and four months after which implants were excised and underwent histological examination and analysis for the area occupied by the implant. […] Due to the lower swellability of the PFD5 hydrogel as compared to the HA hydrogel, the area remained more invariable.

Data set [2] has as its system albino rabbits. The data set is described as follows: Intracutaneous reactivity test. To be noted: for primary irritation index (Treated-Control): 0.2 ml intracutaneous; for erythema and oedema at treated sites: 24, 48 and 72 hours, same in vehicle control sites. As for the experimental part:
In order to test the potential irritation effects of the formulation according to certain embodiments of the present invention, an intracutaneous reactivity test was performed. Two extracts of a 3% w/v PFD5 hydrogel sample, one in a non-polar vehicle, cottonseed oil, and one in a polar vehicle, sodium chloride injection (0.9%), were prepared by immersing the sample in the relative solvents in order to reach a weight/volume ratio of 0.2 g/ml and incubating at 37±1° C. for 72±2 h in dynamic conditions (orbital stirrer). 0.2 ml of the two extracts and 0.2 ml of the respective solvents were intracutaneously injected in five sites of 3 albino rabbits, and macroscopical skin reactions, as erythema, oedema and eschar were evaluated. No abnormalities immediately after intradermal injection of sodium chloride injection extract and sodium chloride injection (vehicle control) were observed. […] The primary irritation index in sodium chloride injection (Treated-Control) was 0.00. No abnormalities immediately after intradermal injection of cottonseed oil extract and cottonseed oil (vehicle control) were observed. […] The primary irritation index in cottonseed oil (Treated-Control) was 0.00.

Regarding `O=C(O)C[C@H](NC(=O)[C@@H]1CCCN1)C(=O)N[C@@H](Cc1ccccc1)C(=O)N[C@@H](CC(=O)O)C(=O)N[C@@H](Cc1ccccc1)C(=O)N[C@@H](CC(=O)O)C(=O)N[C@@H](Cc1ccccc1)C(=O)N[C@@H](CC(=O)O)C(=O)N[C@@H](Cc1ccccc1)C(=O)N[C@@H](CC(=O)O)C(=O)N[C@@H](Cc1ccccc1)C(=O)N[C@@H](CC(=O)O)C(=O)N1CCC[C@H]1C(=O)O` [PFD5, Pro-(Asp-Phe)5-Asp-Pro] (H-PDFDFDFDFDFDP-OH), the “inflammatory responses or necrosis at the sites of implantation” value in the data set with albino rabbits [1] (4 weeks) is “no inflammatory responses or necrosis”. In addition, in the data set on albino rabbits [1] (4 weeks after implantation, control HDPE), the “local effects compared to the negative control” value is recorded as “Minimal local effects”. Besides, in the data set with rats, the “adverse tissue reaction (histology)” value is given as “deprived of multinucleated giant cells or other adverse effects to nearby tissue”. The “primary irritation index (Treated-Control)” value in the data set on albino rabbits [2] (cottonseed oil extract of 3% w/v PFD5 hydrogel) and in the data set with albino rabbits [2] (sodium chloride injection extract of 3% w/v PFD5 hydrogel) was 0.00 in each case. The “erythema and oedema at treated sites” value with albino rabbits [2] (cottonseed oil extract) was “a slight erythema and a slight oedema”; in the data set with albino rabbits [2] (sodium chloride injection extract), “no signs of erythema or oedema”.
